Data reported in the Kinase Knowledgebase extract (Sharma et al. 2016).

Biological target: PIK3CG (human) (UniProt P48736)
Experiment: Assessment of PIK3CG Kinase Activity

Chain of PIK3CG (human) (P48736 whole entry, looked up): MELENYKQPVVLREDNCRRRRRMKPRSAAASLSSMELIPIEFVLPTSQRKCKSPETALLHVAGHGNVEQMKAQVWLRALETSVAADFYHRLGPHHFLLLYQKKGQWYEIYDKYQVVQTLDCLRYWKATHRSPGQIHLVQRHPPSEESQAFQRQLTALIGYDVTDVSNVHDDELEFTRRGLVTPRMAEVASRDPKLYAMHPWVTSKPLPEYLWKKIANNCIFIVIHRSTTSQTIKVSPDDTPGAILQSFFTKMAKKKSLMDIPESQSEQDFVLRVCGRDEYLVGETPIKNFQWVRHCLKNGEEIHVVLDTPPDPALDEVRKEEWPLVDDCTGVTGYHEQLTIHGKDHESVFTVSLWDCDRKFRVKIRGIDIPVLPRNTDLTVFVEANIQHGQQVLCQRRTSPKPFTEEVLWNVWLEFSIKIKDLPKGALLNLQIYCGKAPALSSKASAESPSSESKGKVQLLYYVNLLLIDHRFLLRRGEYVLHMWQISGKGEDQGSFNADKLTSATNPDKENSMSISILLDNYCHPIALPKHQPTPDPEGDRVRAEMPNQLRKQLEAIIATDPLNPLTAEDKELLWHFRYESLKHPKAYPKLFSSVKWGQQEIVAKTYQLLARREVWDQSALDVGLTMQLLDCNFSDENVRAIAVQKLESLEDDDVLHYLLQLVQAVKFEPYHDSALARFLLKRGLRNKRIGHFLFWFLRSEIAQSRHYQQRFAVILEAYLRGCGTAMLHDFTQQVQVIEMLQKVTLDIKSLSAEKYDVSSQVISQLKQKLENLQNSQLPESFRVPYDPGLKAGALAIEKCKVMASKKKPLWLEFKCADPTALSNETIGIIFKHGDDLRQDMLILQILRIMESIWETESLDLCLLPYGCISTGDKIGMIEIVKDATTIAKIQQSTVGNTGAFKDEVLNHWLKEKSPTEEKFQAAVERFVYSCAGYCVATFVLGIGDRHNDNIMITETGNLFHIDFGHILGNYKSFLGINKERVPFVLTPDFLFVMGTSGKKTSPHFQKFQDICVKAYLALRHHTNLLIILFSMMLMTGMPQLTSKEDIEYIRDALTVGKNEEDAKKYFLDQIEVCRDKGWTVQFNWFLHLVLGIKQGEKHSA

IC50, < 600 nM:
CC(=O)Nc1nc2c(s1)-c1nc(-c3cc(C#CC4CCN(C(=O)N(C)C)CC4)ccc3Cl)ncc1CC2, CC(=O)Nc1nc2c(s1)-c1nc(-c3cc(C#CC(C)(C)N)ccc3Cl)ncc1CC2, CC(=O)Nc1nc2c(s1)-c1nc(-c3cc(C#CC4(O)CCN(C5CCCC5)CC4)ccc3Cl)ncc1CC2, CC(=O)Nc1nc2c(s1)-c1nc(-c3cc(C#CCN4CCN(C(C)C)CC4)ccc3Cl)ncc1CC2, CC(=O)Nc1nc2c(s1)-c1nc(-c3cc(C#CCNS(N)(=O)=O)ccc3Cl)ncc1CC2, CC(=O)Nc1nc2c(s1)-c1nc(-c3cc(C#CCCN4CCOCC4)ccc3Cl)ncc1CC2, CC(=O)Nc1nc2c(s1)-c1nc(-c3cc(C#CCNC(=O)CC4CCN(C)CC4)ccc3Cl)ncc1CC2, CC(=O)Nc1nc2c(s1)-c1nc(-c3cc(C#CC4CCN(C(=O)N5CCCC5)CC4)ccc3Cl)ncc1CC2, CCC(N)(C#Cc1ccc(Cl)c(-c2ncc3c(n2)-c2sc(NC(C)=O)nc2CC3)c1)CC, CC(=O)Nc1nc2c(s1)-c1nc(-c3cc(C#CCNCCN4CCCC4)ccc3Cl)ncc1CC2, CC(=O)Nc1nc2c(s1)-c1nc(-c3cc(C#CCNC(=O)NC(C)(C)C)ccc3Cl)ncc1CC2, CC(=O)Nc1nc2c(s1)-c1nc(-c3cc(C#CCCN4CCCCC4)ccc3Cl)ncc1CC2, CC(=O)Nc1nc2c(s1)-c1nc(-c3cc(C#CCCN4CCN(C)CC4)ccc3Cl)ncc1CC2, CNC(=O)Nc1nc2c(s1)-c1nc(-c3cc(C#CC4(O)CCN(C5CCCC5)CC4)ccc3Cl)ncc1CC2, CC(=O)Nc1nc2c(s1)-c1nc(-c3cc(C#CCNC(=O)C4CCCC4)ccc3Cl)ncc1CC2, CC(=O)Nc1nc2c(s1)-c1nc(-c3cc(C#Cc4ccccc4)ccc3Cl)ncc1CC2, CC(=O)Nc1nc2c(s1)-c1nc(-c3cccc(C#CC4(O)CCN(C5CCCC5)CC4)c3)ncc1CC2, CC(=O)Nc1nc2c(s1)-c1nc(-c3cc(C#CC4CCN(S(=O)(=O)C(C)C)CC4)ccc3Cl)ncc1CC2, CNC(=O)NC1(C#Cc2ccc(Cl)c(-c3ncc4c(n3)-c3sc(NC(C)=O)nc3CC4)c2)CCCCC1, CC(=O)Nc1nc2c(s1)-c1nc(-c3cc(C#CCCN(C)C(C)=O)ccc3Cl)ncc1CC2, CC(=O)Nc1nc2c(s1)-c1nc(-c3cc(C#CCNS(=O)(=O)C(F)(F)F)ccc3Cl)ncc1CC2, CC(=O)Nc1nc2c(s1)-c1nc(-c3cc(C#CCNC(=O)CC(C)(C)C)ccc3Cl)ncc1CC2, CC(=O)Nc1nc2c(s1)-c1nc(-c3cc(C#CCN4CCN(C5CCCC5)CC4)ccc3Cl)ncc1CC2, CC(=O)Nc1nc2c(s1)-c1nc(-c3cc(C#CCNC(=O)CC4CC4)ccc3Cl)ncc1CC2, CC(=O)Nc1nc2c(s1)-c1nc(-c3cc(C#CCCCN(C)C)ccc3Cl)ncc1CC2, CC(=O)Nc1nc2c(s1)-c1nc(-c3cc(C#CCNC(=O)CCC4CCCC4)ccc3Cl)ncc1CC2, CC(=O)Nc1nc2c(s1)-c1nc(-c3cc(C#CCN(C)S(=O)(=O)N4CCOCC4)ccc3Cl)ncc1CC2, CC(=O)Nc1nc2c(s1)-c1nc(-c3cc(C#CCNC(=O)C4CC4)ccc3Cl)ncc1CC2, CC(=O)Nc1nc2c(s1)-c1nc(-c3cc(C#CCNCC(C)C)ccc3Cl)ncc1CC2, CC(=O)Nc1nc2c(s1)-c1nc(-c3cc(C#CC4(N(C)C)CCCC4)ccc3Cl)ncc1CC2, CC(=O)Nc1nc2c(s1)-c1nc(-c3cc(C#CC4CCN(CC5CCCC5)CC4)ccc3Cl)ncc1CC2, CC(=O)NCC#Cc1cccc(-c2ncc3c(n2)-c2sc(NC(C)=O)nc2CC3)c1, COC1CCN(S(=O)(=O)NCC#Cc2ccc(Cl)c(-c3ncc4c(n3)-c3sc(NC(C)=O)nc3CC4)c2)CC1, CC(=O)Nc1nc2c(s1)-c1nc(-c3cccc(C#CCNC(=O)C4CCN(C)CC4)c3)ncc1CC2
